In patent US8859534B2, “2-carboxamide-7-piperazinyl-benzofuran derivatives” (AstraZeneca AB, priority 2009, dated 2014):
pKi: −log10 of the molar value.

Tests used:
5-HT1A receptor = 5-HT1A receptor (Homo sapiens (Human), UniProt P08908); assay: 5-HT1A receptor competition binding assay (SPA, [3H]-8-OH-DPAT); settings: membranes of CHO cells expressing 5-HT1A receptors; radioligand [3H]-8-OH-DPAT 0.15-0.2 nM
Description: (§1) Assays that were used to measure affinity of the compounds of the present invention for 5-HT1A and 5-HT1B receptors are described in J. Recept Signal Transduct. Res. 22:483-495 (2002) and Naunyn-Schmiedeberg's Arch Pharmacol. 356:328-334 (1997) and incorporated by reference herein. These assays were be used with some modifications:
(§2) For the binding assay stably transfected chinese hamster ovary (CHO) cell lines expressing 5-HT1A receptors or 5-HT1B receptors were harvested by centrifugation at 300×g for 10 min and resuspended in 10 mM Tris-HCl, 5 mM EDTA at pH 7.4. The cells were pooled, recentrifuged and resuspended before homogenisation using a Dounce homogeniser (“type B”). Cell membranes were centrifuged at 48 000×g for 10 min and then resuspended in harvesting buffer using an Ultra-Turrax T8 (IKA Labortechnik, Germany), aliquots were stored frozen in −70° C.
Frozen membrane preparations were thawed, homogenized with an Ultra-Turrax and mixed with SPA beads (YSI coated WGA, GE Healthcare/Amersham, Buckinghamshire, UK) in assay buffer containing 50 mM Tris-Base, 4 mM MgCl2, 4 mM CaCl2 (only 5-HT1B), 1 mM EDTA, and adjusted to pH 7.4 with HCl. […] The binding assays were performed in 384-well plates in a final volume of 90 μL/well with the following additions: 9 μL binding buffer; 1 μL compound/DMSO/nonspecific; 20 μL radioligand; and 60 μL beads/membrane mixture. Non-specific binding was defined by using 10 μM WAY100635 for 5-HT1A and 10 μM Methiothepin for 5-HT1B. The assay plates were incubated for 4 hours where after the plates are counted in a Wallac 1450 Microbeta Trilux counter (PerkinElmer LifeScience, US) or similar. Data from the experiments were analyzed using a four parameter logistic equation as follows: Y=Bottom+(Top-Bottom)/1+10^(LogEC50-X)nH.

5-HT1B receptor = 5-HT1B receptor (Homo sapiens (Human), UniProt P28222); assay: 5-HT1B receptor competition binding assay (SPA, [3H]-GR125743); settings: membranes of CHO cells expressing 5-HT1B receptors; radioligand [3H]-GR125743 0.15-0.2 nM
5-HT1B receptor, sequence (P28222 whole entry): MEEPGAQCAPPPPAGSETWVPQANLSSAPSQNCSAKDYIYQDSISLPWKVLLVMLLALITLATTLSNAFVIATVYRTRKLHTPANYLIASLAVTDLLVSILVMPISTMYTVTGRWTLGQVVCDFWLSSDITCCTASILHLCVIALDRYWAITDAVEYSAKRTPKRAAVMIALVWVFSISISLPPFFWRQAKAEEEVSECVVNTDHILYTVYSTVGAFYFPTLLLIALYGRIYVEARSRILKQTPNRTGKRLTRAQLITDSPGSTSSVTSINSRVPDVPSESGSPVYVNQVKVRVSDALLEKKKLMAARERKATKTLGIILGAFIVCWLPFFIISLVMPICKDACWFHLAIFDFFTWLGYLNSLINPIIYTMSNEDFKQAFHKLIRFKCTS
Description: as §1, §2
Frozen membrane preparations were thawed, homogenized with an Ultra-Turrax and mixed with SPA beads (YSI coated WGA, GE Healthcare/Amersham, Buckinghamshire, UK) in assay buffer containing 50 mM Tris-Base, 4 mM MgCl2, 4 mM CaCl2 (only 5-HT1B), 1 mM EDTA, and adjusted to pH 7.4 with HCl. The beads/membrane solution, final concentration 100 pM receptors for 5-HT1A, 300 pM receptors for 5-HT1B and 0.5 mg SPA beads/well, was pre-incubated in room temperature with stirring for 30-60 min. […] Five (log interval, 10 μM to 1 nM, final concentration) or ten serial dilutions (½-log interval, 10 μM to 0.32 nM, final concentration) of compounds were prepared in DMSO from 10 mM stock solutions. The binding assays were performed in 384-well plates in a final volume of 90 μL/well with the following additions: 9 μL binding buffer; 1 μL compound/DMSO/nonspecific; 20 μL radioligand; and 60 μL beads/membrane mixture. Non-specific binding was defined by using 10 μM WAY100635 for 5-HT1A and 10 μM Methiothepin for 5-HT1B. The assay plates were incubated for 4 hours where after the plates are counted in a Wallac 1450 Microbeta Trilux counter (PerkinElmer LifeScience, US) or similar. Data from the experiments were analyzed using a four parameter logistic equation as follows: Y=Bottom+(Top-Bottom)/1+10^(LogEC50-X)nH.
• Jerning E., Rosqvist S., Mohell N. (2002) NAD-299 antagonises 5-HT-stimulated and Spiperone-inhibited [^35S]GTPγS binding in cloned 5-HT1A receptors. J Recept Signal Transduct Res 22:483-495. • Doménech T., Beleta J., Palacios J. M. (1997) Characterization of human serotonin 1D and 1B receptors using [^3H]-GR-125743, a novel radiolabelled serotonin 5HT1D/1B receptor antagonist. Naunyn-Schmiedeberg's Arch Pharmacol 356:328-334.

5-HT1A receptor, sequence (P08908 whole entry): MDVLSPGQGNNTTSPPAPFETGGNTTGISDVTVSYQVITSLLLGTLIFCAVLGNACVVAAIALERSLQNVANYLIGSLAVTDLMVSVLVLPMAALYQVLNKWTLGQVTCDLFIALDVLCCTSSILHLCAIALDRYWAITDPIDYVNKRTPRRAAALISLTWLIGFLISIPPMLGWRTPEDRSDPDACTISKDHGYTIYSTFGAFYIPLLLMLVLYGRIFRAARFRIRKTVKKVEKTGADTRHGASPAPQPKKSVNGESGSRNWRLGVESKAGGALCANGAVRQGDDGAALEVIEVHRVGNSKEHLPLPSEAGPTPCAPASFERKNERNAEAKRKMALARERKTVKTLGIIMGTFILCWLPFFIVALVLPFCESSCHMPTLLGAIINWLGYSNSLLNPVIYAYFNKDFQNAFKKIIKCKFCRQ

- pKi (5-HT1A receptor): 9.46
- pKi (5-HT1B receptor): 7.96
SMILES: CN(C)C(=O)c1cc2c(Br)ccc(N3CCN(CCc4ccccn4)CC3)c2o1 [Example 53, 4-Bromo-N,N-dimethyl-7-(4-(2-(pyridin-2-yl)ethyl)piperazin-1-yl)benzofuran-2-carboxamide]
